Measured values taken from patent US11203610B2, “2′3′ cyclic dinucleotides with phosphonate bond activating the sting adaptor protein” (INSTITUTE OF ORGANIC CHEMISTRY AND BIOCHEMISTRY ASCR, V.V.I., priority 2017, dated 2021).

Columns and labels:
AQ STING (G230A-R293Q) = target: T1, AQ STING (G230A-R293Q) (Homo sapiens, UniProt Q86WV6, G230A/H232R/R293Q); test: Differential Scanning Fluorimetry with AQ STING; assay type: binding; settings: thermal shift vs STING apoprotein; 150 μM CDN; 0.1 mg/ml truncated human AQ STING; SYPRO Orange; read-out: DSF ΔTm (° C.) AQ STING
T1 construct: truncated human WT STING or AQ STING (amino acid residues 140-343); 8xHis (N, cleaved yes); SUMO (N, cleaved yes); made in house; host or cells: E. coli Rosetta-gami B (DE3)
T1 sequence (Q86WV6 140-343 G230A/H232R/R293Q): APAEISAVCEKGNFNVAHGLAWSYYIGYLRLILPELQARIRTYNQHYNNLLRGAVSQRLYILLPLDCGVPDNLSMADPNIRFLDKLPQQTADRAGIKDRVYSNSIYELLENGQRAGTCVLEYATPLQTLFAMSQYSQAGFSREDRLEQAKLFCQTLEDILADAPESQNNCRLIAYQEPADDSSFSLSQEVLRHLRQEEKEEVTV
Description: (§1) WT STING and AQ STING Proteins
(§2) Purified PCR products were cleaved with restriction enzymes BamHI (cat. #R0136S, NEB, Ipswich, USA) and NotI (cat. #R0189S, NEB, Ipswich, USA) and cloned into the pSUMO vector linearized with the identical enzymes.
(§3) The resin was poured into a chromatography column, washed with 50 ml buffer A (50 mmol·l^−1 TrisCl (pH 8.0), 800 mmol·l^−1 NaCl, 3 mmol·l^−1 β-mercaptol; 10% glycerol; 20 mmol·l^−1 imidazole) and 8-His-SUMO tagged STING proteins were eluted with 15 ml buffer A containing 300 mmol·l^−1 imidazole. […] Proteins were concentrated with Amicon® Ultra-15 10 K device (cat. #UFC901008, Merck Millipore, Billerica, USA) and flash frozen in liquid N2.
(§4) Differential Scanning Fluorimetry with WT STING and AQ STING
(§5) 20 μL solutions of the reaction mixtures were pipetted in triplicates into 96 well optical reaction plates and thermal denaturation of samples were performed on real time PCR cycler (LightCycler® 480 Instrument II—Roche, Basel, Switzerland). The first derivative of the thermal denaturation curves was performed to calculate denaturing temperatures of STING—CDN complexes and STING apoproteins. The thermal shift for each CDN was calculated by subtracting the average denaturing temperature of STING apoprotein from the average denaturing temperature of STING CDN complex.

WT STING [1] = target: T2, WT STING (Homo sapiens, UniProt Q86WV6, H232R); test: Digitonin assay using 293T wtSTING-FL reporter cells; assay type: cell-based; settings: 293T wtSTING-FL cells; 30 minutes in Digitonin buffer, then 5 hours; ISRE firefly luciferase reporter; 8-point dose-response curve; read-out: Digitonin assay EC50 (μmol · l^−1) WT STING
Text: ISRE Reporter Plasmid (pGL64.27-4xISRE)
Two complementary oligonucleotides of the sequence […] […] […] […] […] The oligonucleotides were mixed in equal molar amounts, hybridized, and cleaved by restriction endonucleases HindIII (cat. #. R0104S, NEB, Ipswich, USA) and BglII (cat. #R0144S, NEB, Ipswich, USA). Ultimately, they were ligated into plasmid pGL4.27 (cat. #E6651, Promega, Madison, USA) linearized with the same enzymes. As result the sequence with four ISRE sites was placed upstream of the minimum promoter of firefly luciferase reporter gene.
After 5 minutes incubation at room temperature (RT), 250 μL of the mixture was added dropwise to the cells in one well. Cells were incubated 36 hours at 37° C. with 5% CO2, and then detached with 0.05% Trypsin and 0.22 g/L EDTA (both cat. #L0941, Biowest, Riverside, USA).
Transfected cells were seeded onto poly-D-lysine coated six well plates at density 50,000 cells per 1 cm^2 in DMEM medium with high glucose containing 10% heat inactivated FBS, 30 g/mL blasticidin (cat. #ant-bl-05, InvivoGen, San Diego, USA), 0.06 mg/ml Penicillin G and 0.1 mg/ml Streptomycin Sulfate (both cat. #. L0018, Biowest, Riverside, USA). The medium was replenished every 3-4 days until visible colonies of cells resistant to blasticidin were formed.
Blasticidin resistant cells stably expressing WT STING were further transfected with […] plasmid following the same procedure as described above. […] Homogeneous culture of stably double transfected cells was prepared by limiting dilution of cells in 96 well plates and wells with cells were selected that originated from a single cell.
The medium was removed next day and three fold serial dilutions of compounds in Digitonin buffer containing 50 mmol·l^−1 HEPES (cat. #H3375, Sigma Aldrich, Czech Republic) pH 7.0, 100 mmol·l^−1 KCl, 3 mmol·l^−1 MgCl2, 0.1 mmol·l^−1 DTT (cat. #D0632, Sigma Aldrich, Czech Republic), 85 mmol·l^−1 Sucrose (cat. #S7903, Sigma Aldrich, Czech Republic), 0.2% BSA (cat. #A2153, Sigma Aldrich, Czech Republic), 1 mmol·l^−1 ATP (cat. #A1852, Sigma Aldrich, Czech Republic), 0.1 mmol·l^−1 GTP (cat. #G8877, Sigma Aldrich, Czech Republic), and 10 μg/mL Digitonin A (cat. #D141, Sigma Aldrich, Czech Republic) were added to the cells. The buffer was removed after 30 minutes incubation at 37° C. with 5% CO2, the cells were washed once with 100 μl of cultivation medium, and 100 μl of medium was added to each well. The plates with cells were incubated for 5 hours at 37° C. with 5% CO2, 50 μl of the medium was removed and 30 μl of ONE-Glo™ Luciferase Assay System reagent (cat. #E6120, Promega, Madison, USA) was added to each well. Luminescence was read on Synergy H1 (Biotek, Winooski, USA).
Target sequence in this assay (Q86WV6 whole entry H232R): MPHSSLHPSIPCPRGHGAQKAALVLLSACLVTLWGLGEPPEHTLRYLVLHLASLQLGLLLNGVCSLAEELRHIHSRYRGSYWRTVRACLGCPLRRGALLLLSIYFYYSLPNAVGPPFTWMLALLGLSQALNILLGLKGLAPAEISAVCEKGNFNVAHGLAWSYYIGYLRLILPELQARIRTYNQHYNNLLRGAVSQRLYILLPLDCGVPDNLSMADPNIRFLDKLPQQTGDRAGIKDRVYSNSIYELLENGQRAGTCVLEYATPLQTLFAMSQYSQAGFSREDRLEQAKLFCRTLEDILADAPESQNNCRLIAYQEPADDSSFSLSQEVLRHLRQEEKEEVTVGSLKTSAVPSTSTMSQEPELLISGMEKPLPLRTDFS

WT STING [2] = target: T2, WT STING; test: Differential Scanning Fluorimetry with WT STING; assay type: binding; design: truncated human WT STING or AQ STING (amino acid residues 140-343); 8xHis (N, cleaved yes); SUMO (N, cleaved yes); made in house; host or cells: E. coli Rosetta-gami B (DE3); settings: thermal shift vs STING apoprotein; 150 μM CDN; 0.1 mg/ml truncated human WT STING; SYPRO Orange; read-out: DSF ΔTm (° C.) WT STING
Description: as §1, §2, §3, §4, §5
Target sequence in this assay (Q86WV6 140-343 H232R): as the sequence (Q86WV6 140-343 G230A/H232R/R293Q) above, with A91G, Q154R counted along it

CSc1ncnc2c1ncn2[C@@H]1O[C@@H]2COP(=O)(O)O[C@@H]3[C@H](O)[C@@H](OCP(=O)(O)O[C@H]2[C@H]1O)O[C@H]3n1cnc2c(=O)[nH]c(N)nc21 [Compound 51, (1R,6R,8R,9R,10S,15R,17R,18S)-17-(2-amino-6-oxo-6,9-dihydro-1H-purin-9-yl)-3,9,12,18-tetrahydroxy-8-[6-(methylsulfanyl)-9H-purin-9-yl]-2,4,7,11,14,16-hexaoxa-3λ^5,12λ^5-diphosphatricyclo[13.2.1.0^6,10]octadecane-3,12-dione]
ΔTm at 150 µM (AQ STING (G230A-R293Q)): 15.9 °C
EC50 (WT STING [1]): 0.01 µM
ΔTm at 150 µM (WT STING [2]): 8.6 °C

Nc1nc2c(nnn2[C@@H]2O[C@@H]3OCP(=O)(O)O[C@H]4[C@H](O)[C@H](n5cnc6c(N)ncnc65)O[C@@H]4COP(=O)(O)O[C@@H]2[C@@H]3O)c(=O)[nH]1 [Compound 62, (1R,6R,8R,9S,10S,15R,17R,18S)-17-{5-amino-7-oxo-3H,6H,7H-[1,2,3]triazolo[4,5-d]pyrimidin-3-yl}-8-(6-amino-9H-purin-9-yl)-3,9,12,18-tetrahydroxy-2,4,7,11,14,16-hexaoxa-3λ^5,12λ^5-diphosphatricyclo[13.2.1.0^6,10]octadecane-3,12-dione]
ΔTm at 150 µM (AQ STING (G230A-R293Q)): 22.9 °C
EC50 (WT STING [1]): 0.05 µM
ΔTm at 150 µM (WT STING [2]): 16 °C

Nc1nc2c(ncn2[C@@H]2O[C@@H]3OCP(=O)(O)O[C@H]4[C@H](O)[C@H](n5cnc6c(N)nc(F)nc65)O[C@@H]4COP(=O)(O)O[C@@H]2[C@@H]3O)c(=O)[nH]1 [Compound 52, (1R,6R,8R,9S,10S,15R,17R,18S)-8-(6-amino-2-fluoro-9H-purin-9-yl)-17-(2-amino-6-oxo-6,9-dihydro-1H-purin-9-yl)-3,9,12,18-tetrahydroxy-2,4,7,11,14,16-hexaoxa-3λ^5,12λ^5-diphosphatricyclo[13.2.1.0^6,10]octadecane-3,12-dione]
ΔTm at 150 µM (AQ STING (G230A-R293Q)): 20.1 °C
EC50 (WT STING [1]): 0.03 µM
ΔTm at 150 µM (WT STING [2]): 13.9 °C

Nc1ncnc2c1ncn2[C@@H]1O[C@@H]2OCP(=O)(O)O[C@@H]3[C@H](O)[C@@H](COP(=O)(O)O[C@H]2[C@H]1O)O[C@H]3n1cnc2c(=O)[nH]cnc21 [Compound 37, (1R,6R,8R,9R,10S,15R,17R,18R)-8-(6-amino-9H-purin-9-yl)-3,9,12,18-tetrahydroxy-17-(6-oxo-6,9-dihydro-1H-purin-9-yl)-2,5,7,11,13,16-hexaoxa-3λ^5,12λ^5 diphosphatricyclo[13.2.1.0^6,10]octadecane-3,12-dione]
ΔTm at 150 µM (AQ STING (G230A-R293Q)): 16.5 °C
EC50 (WT STING [1]): 0.05 µM
ΔTm at 150 µM (WT STING [2]): 8.5 °C

Nc1nc2c(nnn2[C@@H]2O[C@@H]3OCP(=O)(O)OC4C(F)[C@H](n5cnc6c(N)ncnc65)O[C@@H]4COP(=O)(O)OC2C3O)c(=O)[nH]1 (stereo partly drawn) [Compound 63, (6R,8R,15R,17R)-17-{5-amino-7-oxo-3H,6H,7H-[1,2,3]triazolo[4,5-d]pyrimidin-3-yl}-8-(6-amino-9H-purin-9-yl)-9-fluoro-3,12,18-trihydroxy-2,4,7,11,14,16-hexaoxa-3λ^5,12λ^5-diphosphatricyclo[13.2.1.0^6,10]octadecane-3,12-dione]
ΔTm at 150 µM (AQ STING (G230A-R293Q)): 26.4 °C
EC50 (WT STING [1]): 0.008 µM
ΔTm at 150 µM (WT STING [2]): 19.5 °C

Nc1ncnc2c1ncn2[C@@H]1O[C@@H]2COP(=O)(O)O[C@@H]3[C@H](O)[C@@H](COCP(=O)(O)O[C@H]2[C@H]1F)O[C@H]3n1cnc2c(N)ncnc21 [Compound 33, (1R,6R,8R,9R,10R,16R,18R,19R)-8,18-bis(6-amino-9H-purin-9-yl)-9-fluoro-3,12,19-trihydroxy-2,4,7,11,14,17-hexaoxa-3λ^5,12λ^5-diphosphatricyclo[14.2.1.0^6,^10]nonadecane-3,12-dione]
ΔTm at 150 µM (AQ STING (G230A-R293Q)): 8.3 °C
EC50 (WT STING [1]): 2.6 µM
ΔTm at 150 µM (WT STING [2]): 1.6 °C

Nc1nc2c(ncn2[C@@H]2O[C@@H]3OCP(=O)(O)O[C@H]4[C@@H](O)[C@H](n5cnc6c(N)ncnc65)O[C@@H]4COP(=O)(O)O[C@@H]2[C@@H]3F)c(=O)[nH]1 [Compound 60, (1S,6R,8R,9R,10S,15R,17R,18S)-17-(2-amino-6-oxo-6,9-dihydro-1H-purin-9-yl)-8-(6-amino-9H-purin-9-yl)-18-fluoro-3,9,12-trihydroxy-2,4,7,11,14,16-hexaoxa-3λ^5,12λ^5-diphosphatricyclo[13.2.1.0^6,10]octadecane-3,12-dione]
ΔTm at 150 µM (AQ STING (G230A-R293Q)): 24 °C
EC50 (WT STING [1]): 0.012 µM
ΔTm at 150 µM (WT STING [2]): 18.1 °C

Nc1ncnc2c1ncn2[C@@H]1O[C@@H]2OCP(=O)(O)O[C@@H]3[C@H](O)[C@@H](COP(=O)(O)O[C@H]2[C@H]1O)C[C@H]3n1cnc2c(=O)[nH]cnc21 [Compound 59, (1S,6R,8R,9R,10S,15R,17R,18R)-8-(6-amino-9H-purin-9-yl)-3,9,12,18-tetrahydroxy-17-(6-oxo-6,9-dihydro-1H-purin-9-yl)-2,5,7,11,13-pentaoxa-3λ^5,12λ^5-diphosphatricyclo[13.2.1.0^6,10]octadecane-3,12-dione]
ΔTm at 150 µM (AQ STING (G230A-R293Q)): 10 °C
EC50 (WT STING [1]): 1.1 µM
ΔTm at 150 µM (WT STING [2]): 1.8 °C

Nc1nc2c(ncn2[C@@H]2O[C@@H]3OCP(=O)(O)O[C@@H]4[C@@H](OCP(=O)(O)O[C@@H]2[C@@H]3O)O[C@@H](n2cnc3c(N)ncnc32)[C@@H]4O)c(=O)[nH]1 [Compound 44, (1R,6R,8R,9R,10S,15R,17R,18S)-17-(2-amino-6-oxo-6,9-dihydro-1H-purin-9-yl)-8-(6-amino-9H-purin-9-yl)-3,9,12,18-tetrahydroxy-2,5,7,11,14,16-hexaoxa-3λ^5,12λ^5-diphosphatricyclo[13.2.1.0^6,10]octadecane-3,12-dione]
ΔTm at 150 µM (AQ STING (G230A-R293Q)): 10.3 °C
EC50 (WT STING [1]): 0.33 µM
ΔTm at 150 µM (WT STING [2]): 2.6 °C

CNc1ncnc2c1ncn2[C@@H]1O[C@@H]2COP(=O)(O)O[C@@H]3[C@H](O)[C@@H](OCP(=O)(O)O[C@H]2[C@H]1O)O[C@H]3n1cnc2c(=O)[nH]c(N)nc21 [Compound 49, (1R,6R,8R,9R,10S,15R,17R,18S)-17-(2-amino-6-oxo-6,9-dihydro-1H-purin-9-yl)-3,9,12,18-tetrahydroxy-8-[6-(methylamino)-9H-purin-9-yl]-2,4,7,11,14,16-hexaoxa-3λ^5,12λ^5-diphosphatricyclo[13.2.1.0^6,10]octadecane-3,12-dione]
ΔTm at 150 µM (AQ STING (G230A-R293Q)): 9.3 °C
EC50 (WT STING [1]): 0.15 µM
ΔTm at 150 µM (WT STING [2]): 3.8 °C
